Like-named read-outs stand apart in the source and are kept apart here.
Legend:
Plasma stability (Human) = type: in vitro ADME
Description: (§1) Plasma stability of disclosed compounds was investigated. The following table indicates the percent of compound remaining after 60 minutes.

[1] = target: T1, NMDAR2D expressing HEK cell membranes (Homo sapiens, UniProt O15399); experiment: NMDAR agonist assay, [3H]MK-801 binding, NMDAR2D; type: biochemical; details: 50 μM glutamate; for EC50: [3H]MK-801 binding, read-out: NMDAR2D: log EC50 (converted)
T1 construct: expressed in transfected cells; host or cells: HEK cells (membrane extract)
T1 sequence (O15399 28-1336, other chains not shown): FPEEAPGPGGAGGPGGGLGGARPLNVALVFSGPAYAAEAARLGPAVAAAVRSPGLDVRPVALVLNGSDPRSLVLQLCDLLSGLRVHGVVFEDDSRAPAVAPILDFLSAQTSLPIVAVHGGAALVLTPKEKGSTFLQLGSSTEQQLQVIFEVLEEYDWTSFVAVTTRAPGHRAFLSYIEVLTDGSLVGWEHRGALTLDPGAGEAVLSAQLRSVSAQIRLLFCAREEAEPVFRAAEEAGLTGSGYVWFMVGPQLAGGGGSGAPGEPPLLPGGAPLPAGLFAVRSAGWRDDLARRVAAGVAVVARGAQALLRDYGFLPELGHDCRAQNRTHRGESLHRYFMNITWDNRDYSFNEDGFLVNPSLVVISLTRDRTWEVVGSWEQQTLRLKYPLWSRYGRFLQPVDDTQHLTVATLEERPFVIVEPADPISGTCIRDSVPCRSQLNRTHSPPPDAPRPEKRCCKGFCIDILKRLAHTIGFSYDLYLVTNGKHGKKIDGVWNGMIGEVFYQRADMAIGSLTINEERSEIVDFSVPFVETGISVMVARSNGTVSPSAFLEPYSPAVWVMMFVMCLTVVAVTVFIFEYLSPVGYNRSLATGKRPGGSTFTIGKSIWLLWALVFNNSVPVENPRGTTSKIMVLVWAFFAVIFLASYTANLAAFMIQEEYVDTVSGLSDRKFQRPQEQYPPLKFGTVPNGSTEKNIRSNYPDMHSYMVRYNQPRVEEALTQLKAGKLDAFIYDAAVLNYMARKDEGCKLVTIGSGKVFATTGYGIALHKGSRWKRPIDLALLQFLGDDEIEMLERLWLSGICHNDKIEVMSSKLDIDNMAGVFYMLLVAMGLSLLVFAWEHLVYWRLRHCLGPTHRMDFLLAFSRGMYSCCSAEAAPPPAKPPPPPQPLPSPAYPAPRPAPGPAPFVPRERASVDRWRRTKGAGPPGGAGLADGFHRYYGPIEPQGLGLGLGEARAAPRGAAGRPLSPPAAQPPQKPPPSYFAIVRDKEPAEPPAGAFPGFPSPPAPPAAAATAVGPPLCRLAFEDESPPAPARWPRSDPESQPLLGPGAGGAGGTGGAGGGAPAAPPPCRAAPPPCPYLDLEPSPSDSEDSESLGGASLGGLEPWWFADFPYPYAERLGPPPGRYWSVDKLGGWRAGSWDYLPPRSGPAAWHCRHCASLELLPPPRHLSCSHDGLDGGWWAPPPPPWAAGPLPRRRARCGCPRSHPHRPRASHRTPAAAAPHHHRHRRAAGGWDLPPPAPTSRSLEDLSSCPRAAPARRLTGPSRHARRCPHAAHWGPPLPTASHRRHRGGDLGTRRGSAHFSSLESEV
Description: (§2) (nonequilibrium conditions).
(§3) The baseline value was determined from the best fit curve of the DPM values modeled using the GraphPad program and the log(agonist) vs. response(three parameters) algorithm was then subtracted from all points in the dataset.

[2] = target: T2, NMDAR2A expressing HEK cell membranes (Homo sapiens, UniProt Q12879); experiment: NMDAR agonist assay, [3H]MK-801 binding, NMDAR2A; type: biochemical; details: 50 μM glutamate; for EC50: [3H]MK-801 binding, read-out: NMDAR2A: log EC50 (converted)
T2 construct: expressed in transfected cells; host or cells: HEK cells (membrane extract)
T2 sequence (Q12879 23-1464, other chains not shown): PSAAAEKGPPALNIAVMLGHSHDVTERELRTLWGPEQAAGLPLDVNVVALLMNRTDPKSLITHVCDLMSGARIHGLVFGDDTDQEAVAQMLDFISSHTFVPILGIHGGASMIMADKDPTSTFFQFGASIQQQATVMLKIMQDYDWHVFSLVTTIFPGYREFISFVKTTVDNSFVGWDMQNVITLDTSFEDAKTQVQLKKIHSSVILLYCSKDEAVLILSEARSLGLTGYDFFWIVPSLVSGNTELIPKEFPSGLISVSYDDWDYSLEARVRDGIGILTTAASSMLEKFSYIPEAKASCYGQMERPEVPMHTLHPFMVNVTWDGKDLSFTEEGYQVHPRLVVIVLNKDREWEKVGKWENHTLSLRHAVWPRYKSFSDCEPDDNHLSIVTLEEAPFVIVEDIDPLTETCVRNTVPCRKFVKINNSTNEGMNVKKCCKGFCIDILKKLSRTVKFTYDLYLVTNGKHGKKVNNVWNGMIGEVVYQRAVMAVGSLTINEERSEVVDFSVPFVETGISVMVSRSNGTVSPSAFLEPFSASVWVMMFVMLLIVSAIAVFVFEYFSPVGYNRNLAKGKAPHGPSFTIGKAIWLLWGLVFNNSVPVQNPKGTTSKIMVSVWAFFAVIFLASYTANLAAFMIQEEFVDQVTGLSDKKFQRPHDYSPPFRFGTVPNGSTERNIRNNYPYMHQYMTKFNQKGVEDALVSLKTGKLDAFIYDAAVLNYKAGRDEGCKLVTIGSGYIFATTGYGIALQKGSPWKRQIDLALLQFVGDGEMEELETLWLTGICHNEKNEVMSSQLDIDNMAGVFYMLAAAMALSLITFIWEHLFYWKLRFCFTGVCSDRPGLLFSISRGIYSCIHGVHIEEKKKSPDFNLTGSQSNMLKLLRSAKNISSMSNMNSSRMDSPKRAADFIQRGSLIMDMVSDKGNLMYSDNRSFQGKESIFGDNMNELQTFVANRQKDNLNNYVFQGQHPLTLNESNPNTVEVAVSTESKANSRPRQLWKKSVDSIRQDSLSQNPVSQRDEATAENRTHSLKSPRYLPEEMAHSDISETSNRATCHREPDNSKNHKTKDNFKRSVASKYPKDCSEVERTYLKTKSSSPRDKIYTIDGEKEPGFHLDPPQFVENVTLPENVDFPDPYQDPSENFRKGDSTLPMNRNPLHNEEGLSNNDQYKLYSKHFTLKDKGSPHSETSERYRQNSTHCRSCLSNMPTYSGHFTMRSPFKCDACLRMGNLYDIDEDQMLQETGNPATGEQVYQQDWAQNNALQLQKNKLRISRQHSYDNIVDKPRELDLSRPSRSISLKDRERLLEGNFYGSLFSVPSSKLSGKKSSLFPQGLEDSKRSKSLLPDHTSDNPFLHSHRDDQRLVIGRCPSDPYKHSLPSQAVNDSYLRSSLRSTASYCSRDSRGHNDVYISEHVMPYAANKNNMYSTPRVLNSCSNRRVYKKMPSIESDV
Description: as §2, §3

[3] = Microsomal stability (Rat); type: in vitro ADME; details: rat microsomes
Description: (§4) Microsomal stability of disclosed compounds was investigated. The following table indicates the percent of compound remaining after 60 minutes.

[4] = target: T3, NMDAR2B expressing HEK cell membranes (Homo sapiens, UniProt Q13224); experiment: NMDAR agonist assay, [3H]MK-801 binding, NMDAR2B; type: biochemical; details: 50 μM glutamate; for EC50: [3H]MK-801 binding, read-out: NMDAR2B log EC50 (converted)
T3 construct: expressed in transfected cells; host or cells: HEK cells (membrane extract)
T3 sequence (Q13224 27-1484, other chains not shown): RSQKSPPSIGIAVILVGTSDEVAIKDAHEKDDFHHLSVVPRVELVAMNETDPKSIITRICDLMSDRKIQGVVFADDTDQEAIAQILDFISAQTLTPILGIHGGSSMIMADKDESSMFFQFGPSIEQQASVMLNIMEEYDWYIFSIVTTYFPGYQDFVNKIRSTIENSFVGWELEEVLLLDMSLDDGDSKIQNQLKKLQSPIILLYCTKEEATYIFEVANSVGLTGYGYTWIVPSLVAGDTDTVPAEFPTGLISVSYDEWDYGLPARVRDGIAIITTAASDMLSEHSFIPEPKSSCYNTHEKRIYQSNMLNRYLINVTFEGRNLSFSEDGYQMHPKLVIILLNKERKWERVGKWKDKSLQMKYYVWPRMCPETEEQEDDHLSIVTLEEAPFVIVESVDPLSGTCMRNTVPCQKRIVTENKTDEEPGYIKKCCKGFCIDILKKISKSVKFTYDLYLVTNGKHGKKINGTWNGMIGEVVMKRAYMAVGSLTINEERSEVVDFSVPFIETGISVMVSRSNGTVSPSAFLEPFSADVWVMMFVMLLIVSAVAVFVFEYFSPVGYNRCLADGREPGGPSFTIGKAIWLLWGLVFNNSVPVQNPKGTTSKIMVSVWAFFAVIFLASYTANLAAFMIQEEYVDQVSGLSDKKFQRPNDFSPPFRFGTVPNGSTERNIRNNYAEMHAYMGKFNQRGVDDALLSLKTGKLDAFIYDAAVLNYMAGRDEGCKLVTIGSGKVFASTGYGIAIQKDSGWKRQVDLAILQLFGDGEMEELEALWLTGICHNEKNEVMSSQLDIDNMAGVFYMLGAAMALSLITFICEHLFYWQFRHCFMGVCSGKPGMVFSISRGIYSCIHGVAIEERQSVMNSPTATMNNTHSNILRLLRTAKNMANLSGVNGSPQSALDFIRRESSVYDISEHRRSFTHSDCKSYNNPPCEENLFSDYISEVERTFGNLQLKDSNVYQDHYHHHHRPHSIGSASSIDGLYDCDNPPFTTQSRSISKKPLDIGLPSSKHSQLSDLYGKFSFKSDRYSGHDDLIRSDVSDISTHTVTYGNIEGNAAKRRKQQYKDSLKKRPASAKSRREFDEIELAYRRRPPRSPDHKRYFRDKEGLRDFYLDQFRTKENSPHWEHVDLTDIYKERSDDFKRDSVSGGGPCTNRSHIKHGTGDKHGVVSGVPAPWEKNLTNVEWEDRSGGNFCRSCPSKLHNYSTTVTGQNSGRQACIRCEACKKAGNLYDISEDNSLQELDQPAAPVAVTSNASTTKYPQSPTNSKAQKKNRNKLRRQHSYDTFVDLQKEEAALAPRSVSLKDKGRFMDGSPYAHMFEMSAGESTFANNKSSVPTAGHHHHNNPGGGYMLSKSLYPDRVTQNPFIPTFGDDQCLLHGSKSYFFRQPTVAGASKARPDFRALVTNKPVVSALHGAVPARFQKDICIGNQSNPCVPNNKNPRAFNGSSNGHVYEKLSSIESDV
Description: as §2, §3

[5] = target: T4, NMDAR2C expressing HEK cell membranes (Homo sapiens, UniProt Q05586+Q14957); experiment: NMDAR agonist assay, [3H]MK-801 binding, NMDAR2C; type: biochemical; details: 50 μM glutamate; for EC50: [3H]MK-801 binding, read-out: NMDAR2C: log EC50 (converted)
T4 construct: expressed in transfected cells; host or cells: HEK cells (membrane extract)
Description: as §2, §3

Plasma stability (Rat) = type: in vitro ADME
Description: as §1

[6] = tested on: positive (hedonic) 50-kHz ultrasonic vocalizations (USVs); experiment: Positive Emotional Learning (PEL) test; type: in vivo; details: rat, PO, one hour after administration
In short: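 Rats received test compound or vehicle (0.5% carboxymethyl cellulose in saline) 1 h before 3 min of experimenter-delivered rough-and-tumble play in alternating 15 s play and no-stimulation blocks. Frequency-modulated 50-kHz USVs during no-stimulation (CS) periods were counted; animals not habituated beforehand.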

[7] = Microsomal stability (Human); type: in vitro ADME; details: human microsomes
Description: as §4

[8] = tested on: Sciatic nerve chronic constriction nerve injury; experiment: Bennett nerve injury assay (mechanical analgesia, paw withdrawal threshold); type: in vivo, Sprague Dawley rats; details: 150 mg/kg PO
Description: The Bennett model of mechanical analgesia is used to assess the analgesic effects of compounds as measured by paw withdrawal threshold. Bennett G J, Xie Y K, “A peripheral mononeuropathy in rat that produces disorders of pain sensation like those seen in man,” Pain 33:87-107, 1988. […] Vehicle animals receive the surgery and then receive vehicle rather than test compound. Animals were tested 1 hr, 24 h and 1 wk post-test compound or vehicle administration.
Male 2-3 month old Sprague Dawley rats were used. Harlan was the supplier for all studies. Rats were housed in Lucite cages with aspen wood chip bedding, maintained on a 12:12 light:dark cycle (lights on at 5 AM), and given ad libitum access to Purina lab chow (USA) and tap water throughout the study.
Rats were anesthetized using inhaled isoflurane (2.5%). Sciatic nerve chronic constriction nerve injury surgery was performed as previously described (Bennett and Xie, 1988). An incision (˜1.5 cm in length) was made with a scalpel blade dorsally through skin on the right hind limb, parallel and posterior to femur. Using a small pointed hemostat, the biceps femoris and gluteus superficialis muscles were separated. Using curved blunt forceps, the common sciatic nerve was isolated and exposed. For the mechanical analgesia studies, the whole sciatic nerve was ligated. Using hemostats/forceps and chromic gut (5-0), the nerve was loosely ligated with a square knot; 3 ligatures, 1 mm apart were placed on the nerve. […] Testing occurred approximately 2 weeks post-surgery.
During testing, rats were acclimated to the surface of a suspended wire mesh grid (1 cm×1 cm, with the wire being 0.3 cm in diameter) for 15-20 min Starting from the smallest, each Von Frey filament was pressed perpendicularly to the plantar surface of the affected (ipsilateral) hind paw until slightly bent and then held for 6 second. If an obvious hind paw withdrawal or a flinching behavior immediately after the withdrawal of the filament was not observed, the next larger filament was used in the same manner. In case of a response, a lower filament was used. This was repeated until six responses were collected.
For all studies, animals were baselined prior to study start to test for allodynia (defined as a paw withdrawal threshold under 5). A subset of animals was tested with gabapentin (150 mg/kg, PO) to ensure at least 50% analgesia. Once it was confirmed animals were ready for study initiation, animals were balanced across groups. All study investigators were blind to treatment conditions. Animals were dosed with 0.1, 1 or 10 mg/kg of test compound via oral gavage (PO), control sets of animals were dosed with gabapentin (150 mg/kg, PO) or vehicle (0.5% Na-CMC in 0.9% sterile saline, PO). Testing occurred 1 h post-dosing with animals retested 24 hrs and 1 week post-dosing. The percent analgesia calculations for each animal were made using the following equation: % analgesia=[(log(x)−y)/((log (z)−y)]*100, where x=the paw withdrawal threshold for the drug-treated animal in grams, y=the average of the log(x) values for the vehicle treated group, and z=the paw withdrawal threshold for naïve animals in grams (historical value of 15 used). The results for Compound AD, where the percentage of analgesia is measured at 1 hour, 24 hours, and 1 week after compound administration are as follows: for 0.1 mg/kg dose: 37.8% at 1 h, 29.7% at 24 h, and 63.1% at 1 wk; for 1 mg/kg dose: 48.8% at 1 h, 20.6% at 24 h, and 19.8% at 1 wk; and for 10 mg/kg dose: 70.3% at 1 h, 38.8% at 24 h, and 11.3% at 1 wk.

[9] = target: T5, NMDAR2D expressing HEK cell membranes (Homo sapiens, UniProt O15399+Q05586); experiment: NMDAR agonist assay, [3H]MK-801 binding, NMDAR2D; type: biochemical; details: 50 μM glutamate; for EC50: [3H]MK-801 binding, read-out: NMDAR2D: log EC50 (converted)
T5 construct: expressed in transfected cells; host or cells: HEK cells (membrane extract)
T5 sequence (O15399 28-1336, other chains not shown): as the sequence (O15399 28-1336, other chains not shown) above
Description: as §2, §3

[10] = target: T6, NMDAR2C expressing HEK cell membranes (Homo sapiens, UniProt Q14957); experiment: NMDAR agonist assay, [3H]MK-801 binding, NMDAR2C; type: biochemical; details: 50 μM glutamate
T6 construct: expressed in transfected cells; host or cells: HEK cells (membrane extract)
Description: as §2, §3

[11] = target: T7, NMDAR2B expressing HEK cell membranes (Homo sapiens, UniProt Q05586+Q13224); experiment: NMDAR agonist assay, [3H]MK-801 binding, NMDAR2B; type: biochemical; details: 50 μM glutamate; [3H]MK-801 binding; read-out: NMDAR2B log EC50 (converted)
T7 construct: expressed in transfected cells; host or cells: HEK cells (membrane extract)
Description: as §2, §3

IV pharmacokinetics = type: in vivo; design: C0: unit: ng/mL; details: Sprague Dawley rats, 2 mg/kg, normal saline
Description: Sprague Dawley rats were dosed intravenously using a normal saline formulation containing 2 mg/kg of the compounds identified in the below table. The table below summarizes the results of the IV pharmacokinetics.

[12] = Oral pharmacokinetics (plasma, brain, CSF); type: in vivo; design: Cmax: unit: ng/mL; details: Sprague Dawley rats, per os, 10 mg/kg; for Tmax: normal saline
Description: In another experiment, Sprague Dawley rats were dosed per os using a normal saline formulation containing 10 mg/kg of the compounds identified in the table below. Plasma, brain, and CSF samples were analyzed at various time points over a 24 hour period. The table below summarizes the results of the oral pharmacokinetics.

[13] = Sprague Dawley, rat, in vivo, iv
[14] = Sprague Dawley, rat, plasma, po

Row | SMILES | Plasma (Human): percent of compound remaining after 60 minutes (Plasma stability (Human)) | NMDAR2D: % maximal [3H]MK-801 binding relative to 1 mM glycine [1] | NMDAR2A: % maximal [3H]MK-801 binding relative to 1 mM glycine [2] | Microsomal (Rat): percent of compound remaining after 60 minutes [3] | EC50 [4] | NMDAR2B: % maximal [3H]MK-801 binding relative to 1 mM glycine [4] | Plasma (Rat): percent of compound remaining after 60 minutes (Plasma stability (Rat)) | Microsomal (Human): percent of compound remaining after 60 minutes [7] | EC50 [9] | EC50 [2] | NMDAR2C A: % maximal [3H]MK-801 binding relative to 1 mM glycine [10] | EC50 [11] | EC50 [5] | Max Effect (mean number of 50 kHz USVs per 15 seconds) ([6]; dose 0.1 mg/kg) | Vss (IV pharmacokinetics) | CSF Cmax [12] | Brain Cmax [12] | EC50 [1] | other results
1 | O=C1NCC12CCC1(CNC1=O)N2Cc1ccccc1 (single isomer, unassigned) [AC-1, 5-benzyl-2,5,8-triazadispiro[3.1.36.24]undecane-1,7-dione] | 100% | + (<100%=+) | + (<100%=+) | 100% | < 1 nM | + (<100%=+) | 100% | 95% |  |  |  |  |  |  |  |  |  |  | Emax ([5]; relative to 1 mM glycine, read-out: NMDAR2C A: % maximal [3H]MK-801 binding relative to 1 mM glycine): < 100%; Max Effect (mean number of 50 kHz USVs per 15 seconds) ([6]; dose 0.001-1 mg/kg): * (*: 6-10.9)
2 | NCC1(CC(=O)O)CCCCC1 [gabapentin, reference compound] |  |  |  |  |  |  |  |  |  |  |  |  |  |  |  |  |  |  | analgesia, control group of the study ([8]; 1 week post-administration): under 5%; percentage of analgesia, example (typical) control value ([8]; 1 wk): 0%; percentage of analgesia, example (typical) control value ([8]; 1 h): 72%; analgesia, control group of the study ([8]; 1 h post-administration): at least 50%; percentage of analgesia, example (typical) control value ([8]; 24 h): 16%; analgesia, control group of the study ([8]; 24 h post-administration): under 5%
3 | O=C1NCC12CCC1(CNC1=O)N2Cc1ccccc1 (single isomer, unassigned) [AC-3, 5-benzyl-2,5,8-triazadispiro[3.1.36.24]undecane-1,7-dione] | 92% | − (−=0) | + (<100%=+) | 83% | < 1 nM | + (<100%=+) | 85% | 77% | > 100 nM | < 1 nM | + (<100%=+) |  |  |  |  |  |  |  | 
4 | C[C@@H](O)[C@H](NC(=O)C1CCC2(CNC2=O)N1Cc1ccccc1)C(N)=O (single isomer, unassigned) [AM] | 88% |  | + (<100%=+) | 99% |  | + (<100%=+) | 87% | 95% | < 1 nM | < 1 nM | − (−=0) | < 1 nM | > 100 nM | * (*: 6-10.9) | 1.21 L/kg | 0 ng/mL | 0 ng/mL |  | Emax ([9]; relative to 1 mM glycine, read-out: NMDAR2D: % maximal [3H]MK-801 binding relative to 1 mM glycine): < 100%; AUC(0-t) (IV pharmacokinetics; [13]): 1000 ng·h/mL; clearance (IV pharmacokinetics; [13]): 33.3 mL/min/kg; half-life (IV pharmacokinetics; [13]): 2.38 h; C0 (IV pharmacokinetics; Sprague Dawley, rat, in vivo, iv, read-out: C0): 3460 ng/mL; AUC(0-t) [12, 14]: 97.6 ng·h/mL; bioavailability [12, 14]: 2%; Tmax ([12]; Sprague Dawley, rat, plasma, po, read-out: Tmax): 0.33 h; Cmax ([12]; Sprague Dawley, rat, plasma, po, plasma, read-out: Cmax): 34.2 ng/mL
5 | CC(C)(C)OC(=O)N1CC2(CNC2=O)CC12CNC2=O (centres unmarked) [AY-1] |  | + (<100%=+) | − (−=0) |  | < 1 nM | + (<100%=+) |  |  |  | > 100 nM | + (<100%=+) |  |  |  |  |  |  | < 1 nM | EC50 ([10]; [3H]MK-801 binding, read-out: NMDAR2C: log EC50 (converted)): < 1 nM
6 | C[C@@H](O)[C@H](NC(=O)C1CCC2(CNC2=O)N1Cc1ccccc1)C(N)=O (single isomer, unassigned) [AN] | 88% | + (<100%=+) | + (<100%=+) | 87% |  | + (<100%=+) | 87% | 88% |  | < 1 nM | + (<100%=+) | < 1 nM | < 1 nM | * (*: 6-10.9) | 2.45 L/kg | 0 ng/mL | 0 ng/mL | < 1 nM | AUClast (IV pharmacokinetics): 727.7 ng·h/mL; C0 (IV pharmacokinetics): 3209.4 ng/mL; Cl (IV pharmacokinetics): 45.98 mL/min/kg; T1/2 (IV pharmacokinetics): 4.67 h; % F [12]: 3%; AUClast [12]: 126.32 ng·h/mL; Tmax [12]: 0.42 h; Cmax ([12]; plasma): 38.9 ng/mL

From patent publication US11028095B2, “Spiro-lactam and bis-spiro-lactam NMDA receptor modulators and uses thereof” (Aptinyx Inc., priority 2016, dated 2021)
